How the values were obtained:
[1] = test system: RSV (RSS strain); experiment: RSV ELISA antigen reduction assay in Hep-2 cells; assay type: cell-based, Respiratory Syncytial Virus; settings: RSV-infected Hep-2 cells, 3 day assay, ELISA OD 490 nm, 7-point dilution 50 μM-0.78 μM
Experimental: This was quantified by optical density (OD) measurement.
This assay was set up using all 96 wells of flat-bottomed 96-well plates. The outer wells were not subjected to any greater amount of evaporation than the inner wells during the 3 day assay period. (i.e. No “edge effect” seen).
Plates were set up one day before addition of virus and compounds. The assay then ran for 3 days with ELISA development taking place on the 4th day.
(§1) All 96 wells of a microtitre plate were seeded at a density of 4×10^3 Hep-2 cells/well in 100 μl/well of Growth Medium (GM) consisting of Dulbecco's MEM (DMEM) with Glutamax-1, Sodium Pyruvate, 1000 mg/l glucose and pyridoxine (Invitrogen, catalogue number 21885-025) and supplemented with 10% FBS. (See Plate 1).
A frozen vial of RSV (RSS strain provided by Virogen Ltd) stock solution was removed from the −80 freezer or liquid nitrogen store and diluted to a known Multiplicity of Infection (m.o.i) in Growth Medium.
The m.o.i. was calculated by prior titration of the virus stock (by the ELISA assay method) as the virus input required to achieve a window of at least 0.8 OD units between infected and uninfected control wells.
50 μl of diluted virus was added to infected, “virus+”, wells by multichannel pipette; 50 μl of Growth Medium was added to uninfected, cell control wells (CC) by multichannel pipette. (See Plate 2)
Plates were incubated at 37° C. for 1 hr to allow virus adsorption.
Compounds were made up at 4× strength in GM containing 2% DMSO (a final DMSO concentration in the assay of 0.5%).
(§2) Six compounds were tested on each assay plate as illustrated below. (See Plate 3). Compounds were tested in duplicate wells across a 7-point dilution series (from 50 μM-0.78 μM): in the presence of virus.
Virus infected, untreated wells served as the virus control (VC); Uninfected, untreated wells serve as the cell control (CC). The difference in absorbance between CC and VC wells constitutes the assay window.
200 μl of GM containing 2% DMSO was added to all wells except the ‘50 μM’ or first column, to which 392 μl of GM was added. 8 μl of each test compound was cherry-picked from a thawed Arrow screening plate and transferred to the appropriate well in the ‘50 μM’ column. Since the compound stock was at 10 mM in 100% DMSO, this will maintain the DMSO level at 2% at the top compound concentration.
Using a multichannel pipette, 200 μl was transferred from the 50 μM column to the 25 μM column, then to the 12.5 μM column and so on across the dilution plate creating a serial doubling dilution. Compounds were mixed upon transfer and tips changed between transfers, ensuring also that no compound was transferred to the last column of compound-free wells (0 μM).
The dilution plate was turned lengthways and 50 μl of compound easily transferred by multichannel pipette from the dilution plate to the assay plate, column by column. There was therefore an excess of 100 μl remaining in the dilution plate.
Plates were incubated at 37° C., 5% CO2 for 3 days.
Media was tapped out from wells directly into Virkon (1% solution in water) and plates were washed by immersing in a plastic box containing PBS. 50 μl/well of 75%/25% vol/vol acetone/methanol fixative was added by multichannel pipette and left for 3 mins.
Some 200 μl of blocking solution (2% Marvel in PBS containing 0.05% Tween) was added per well by multichannel pipette. Plates were incubated at 37° C. in a shaking incubator for 60 mins.
RSV mouse monoclonal antibody NCL-RSV3 (Novocastra) was diluted 1/400 in PBS/2% Marvel/0.05% Tween and 50 μl was added per well. Plates were incubated at 37° C. in a shaking incubator for 90 mins.
DAKo rabbit anti-mouse HRP conjugate (DAKO catalogue number P0260) was diluted 1/1000 in PBS/2% Marvel/0.05% Tween and 50 μl was added per well. Plates were incubated at 37° C. in a shaking incubator for 60 mins.
Substrate (SigmaFast OPD) was prepared in advance by dissolving 1 urea tablet in 20 mL water. […]

[2] = test system: Hep-2 cells; experiment: Cell toxicity: crystal violet staining and microscopic examination of monolayers; assay type: cell-based; settings: Hep-2 monolayers of the assay plates, crystal violet stain, indications of cell toxicity; compounds tested 50 μM-0.78 μM
Experimental: as §1, §2
The wells were emptied, washed in tap water and the monolayers stained with 50 μl/well of 2% crystal violet in 20% methanol/water for at least 1 hour. The wells were then washed and air-dried and the monolayers examined under the microscope for indications of cell toxicity.

[3] = human respiratory syncytial virus, 72 h

Compound	IC50 [1]	TD50 [2]	IC50 [1, 3]
O=C(N[C@H]1N=C(c2ccccc2)c2ccccc2NC1=O)c1ccc(F)cc1[N+]1([O-])CCS(=O)(=O)CC1 [Example 5]	< 5 µM	Tr25	
O=C(N[C@H]1N=C(c2ccccc2)c2ccccc2NC1=O)c1cc(F)ccc1N1CCS(=O)(=O)CC1 [Example 7, (S)-2-(1,1-Dioxo-1λ6-thiomorpholin-4-yl)-5-fluoro-N-(2-oxo-5-phenyl-2,3-dihydro-1H-benzo[e][1,4]diazepin-3-yl)-benzamide]		Tr50	< 5 µM
N#Cc1ccc(C(=O)N[C@H]2N=C(c3ccccc3)c3ccccc3NC2=O)c(N2CCCC2)c1 [Example 14, (S)-4-Cyano-N-(2-oxo-5-phenyl-2,3-dihydro-1H-benzo[e][1,4]diazepin-3-yl)-2-pyrrolidin-1-yl-benzamide]		Tr50	< 5 µM
N#Cc1ccc(C(=O)N[C@H]2N=C(c3ccccc3)c3ccccc3NC2=O)c(N2CCCCC2)c1 [Example 15, (S)-4-Cyano-N-(2-oxo-5-phenyl-2,3-dihydro-1H-benzo[e][1,4]diazepin-3-yl)-piperidine-1-yl-benzamide]	> 10 µM	Tr25	
O=C(N[C@H]1N=C(c2ccccc2)c2ccccc2NC1=O)c1cccnc1N1CCOCC1 [Example 21, (S)-2-Morpholin-4-yl-N-(2-oxo-5-phenyl-2,3-dihydro-1H-benzo[e][1,4]diazepin-3-yl)-nicotinamide]		Tr25	5 to 10 µM
O=C(N[C@H]1N=C(c2ccccc2)c2ccccc2NC1=O)c1occc1CN1CCOCC1 [Example 44, (S)-3-Morpholin-4-ylmethyl-furan-2-carboxylic acid (2-oxo-5-phenyl-2,3-dihydro-1H-benzo[e][1,4]diazepin-3-yl)-amide]			5 to 10 µM
O=C(N[C@H]1N=C(c2ccccc2)c2ccccc2NC1=O)c1ccc(-c2ccccn2)s1 [Example 45, (S)-5-Pyridin-2-yl-thiophene-2-carboxylic acid (2-oxo-5-phenyl-2,3-dihydro-1H-benzo[e][1,4]diazepin-3-yl)-amide]			< 5 µM
Cc1occ(S(=O)(=O)N2CCOCC2)c1C(=O)N[C@H]1N=C(c2ccccc2)c2ccccc2NC1=O [Example 46, (S)-2-Methyl-4-(morpholin-4-sulfonyl)-furan-3-carboxylic acid (2-oxo-5-phenyl-2,3-dihydro-1H-benzo[e][1,4]diazepin-3-yl)-amide]			5 to 10 µM
O=C(N[C@H]1N=C(c2ccccc2)c2ccccc2NC1=O)c1ccc(N2CCOCC2)nc1 [Example 47, (S)-6-Morpholin-4-yl-N-(2-oxo-5-phenyl-2,3-dihydro-1H-benzo[e][1,4]diazepin-3-yl)-nicotinamide]			< 5 µM
O=C(N[C@H]1N=C(c2ccccc2)c2ccccc2NC1=O)c1sccc1CN1CCOCC1 [Example 48, (S)-3-Morpholin-4-ylmethyl-thiophene-2-carboxylic acid (2-oxo-5-phenyl-2,3-dihydro-1H-benzo[e][1,4]diazepin-3-yl)-amide]			< 5 µM
O=C(N[C@H]1N=C(c2ccccc2)c2ccccc2NC1=O)c1ccc(CN2CCOCC2)s1 [Example 49, (S)-5-Morpholin-4-ylmethyl-thiophene-2-carboxylic acid (2-oxo-5-phenyl-2,3-dihydro-1H-benzo[e][1,4]diazepin-3-yl)-amide]			< 5 µM
O=C(N[C@H]1N=C(c2ccccc2)c2ccccc2NC1=O)c1ncoc1-c1ccccc1 [Example 51, (S)-5-Phenyl-oxazole-4-carboxylic acid (2-oxo-5-phenyl-2,3-dihydro-1H-benzo[e][1,4]diazepin-3-yl)-amide]			< 5 µM
(S)-2-(1,1-Dioxo-1λ6-thiomorpholin-4-yl)-N-(2-oxo-5-phenyl-2,3-dihydro-1H-benzo[e][1,4]diazepin-3-yl)-nicotinamide [Example 22]	> 10 µM		
(S)-5-Pyrrolidin-1-ylmethyl-furan-2-carboxylic acid (2-oxo-5-phenyl-2,3-dihydro-1H-benzo[e][1,4]diazepin-3-yl)-amide [Example 9]	5 to 10 µM		

Source: patent publication US20080139536A1, “Benzodiazepines for Treating or Preventing Rsv Infection” (Novartis Pharmaceuticals Corporation, priority 2004, published 2008)
